We go through 34 compounds from publication PMC9303458 (Chemmedchem, 2022).

The IC50 is the point on the concentration scale where inhibition reaches its midpoint. One may read the Papp A→B as how fast a substance crosses the layer from the apical side. A higher Papp A→B goes with fast passage.

The target of one data set is T1, human recombinant MAGL (Homo sapiens, UniProt Q99685).
T1 sequence (Q99685 1-303): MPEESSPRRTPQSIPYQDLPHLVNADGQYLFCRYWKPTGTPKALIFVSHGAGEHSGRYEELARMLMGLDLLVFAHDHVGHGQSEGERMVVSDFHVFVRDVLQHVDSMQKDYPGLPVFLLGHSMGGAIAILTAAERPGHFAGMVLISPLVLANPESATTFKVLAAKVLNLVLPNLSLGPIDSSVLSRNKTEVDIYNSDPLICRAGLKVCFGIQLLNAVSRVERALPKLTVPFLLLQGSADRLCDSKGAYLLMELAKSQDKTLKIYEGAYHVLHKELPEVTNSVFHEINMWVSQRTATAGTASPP
It is filed as biochemical. The settings on record: for MAGL inhibition at 10 μM: highest test concentration.

The target of data set [1] is T2, fatty acid amide hydrolase (FAAH), rat brain homogenate (Rattus norvegicus, UniProt P97612).
T2 sequence (P97612 1-579): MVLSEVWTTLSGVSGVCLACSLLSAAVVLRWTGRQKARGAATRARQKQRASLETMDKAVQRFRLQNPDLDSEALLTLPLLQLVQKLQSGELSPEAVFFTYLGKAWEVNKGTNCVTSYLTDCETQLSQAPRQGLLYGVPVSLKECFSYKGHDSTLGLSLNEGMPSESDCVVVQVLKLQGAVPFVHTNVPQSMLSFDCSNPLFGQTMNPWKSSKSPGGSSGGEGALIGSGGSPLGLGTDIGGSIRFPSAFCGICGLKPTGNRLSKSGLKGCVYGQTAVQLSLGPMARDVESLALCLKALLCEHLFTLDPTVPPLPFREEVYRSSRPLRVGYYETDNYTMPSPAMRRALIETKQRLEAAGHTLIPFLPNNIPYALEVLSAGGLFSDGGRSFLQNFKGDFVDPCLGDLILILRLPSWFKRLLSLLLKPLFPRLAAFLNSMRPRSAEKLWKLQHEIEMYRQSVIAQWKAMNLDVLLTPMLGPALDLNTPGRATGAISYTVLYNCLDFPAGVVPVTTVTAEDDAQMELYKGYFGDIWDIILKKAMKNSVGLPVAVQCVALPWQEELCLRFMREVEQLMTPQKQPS
The class given is biochemical. To be noted: for FAAH inhibition at 10 μM: highest test concentration; for inhibition at 10 µM: read-out: FAAH inhibition at 10 μM, 10 μM, highest test concentration.

The nature of data set [2]: Chemical stability in aqueous solution. The settings on record: percent of parent remaining after 60 min at 37 °C; mean ± SD, n=3. It is filed as physicochemical.
Data set [3] is described as follows: Metabolic stability in porcine liver S9 fraction. The class given is in vitro ADME. To be noted: for Porcine liver S9 fraction Stability: percent of parent remaining after 30 min at 37 °C, mean ± SD, n=3.
Data set [4] concerns the target butyrylcholinesterase (BuChE) (Equus caballus, UniProt P81908). The experiment in a line: Inhibition of BuChE, release of benzoic acid from benzoylcholine. The class given is biochemical, horse.
The nature of data set [5]: Metabolic stability in porcine blood plasma. The class given is in vitro ADME. The settings on record: for Porcine blood plasma Stability: percent of parent remaining after 30 min at 37 °C, mean ± SD, n=3.
Data set [6] can be described thus: Thermodynamic aqueous solubility. The class given is physicochemical. The settings on record: PBS pH 7.4, shaken 20 h, 20 °C; mean ± SD.
Another data set is described as follows: Caco‐2 cell permeability. The settings on record: human, Caco-2, pH 7.4. A general note: Caco-2 cells form a polarised layer with tight junctions and transporters.

butyrylcholinesterase (BuChE), sequence (P81908 whole entry): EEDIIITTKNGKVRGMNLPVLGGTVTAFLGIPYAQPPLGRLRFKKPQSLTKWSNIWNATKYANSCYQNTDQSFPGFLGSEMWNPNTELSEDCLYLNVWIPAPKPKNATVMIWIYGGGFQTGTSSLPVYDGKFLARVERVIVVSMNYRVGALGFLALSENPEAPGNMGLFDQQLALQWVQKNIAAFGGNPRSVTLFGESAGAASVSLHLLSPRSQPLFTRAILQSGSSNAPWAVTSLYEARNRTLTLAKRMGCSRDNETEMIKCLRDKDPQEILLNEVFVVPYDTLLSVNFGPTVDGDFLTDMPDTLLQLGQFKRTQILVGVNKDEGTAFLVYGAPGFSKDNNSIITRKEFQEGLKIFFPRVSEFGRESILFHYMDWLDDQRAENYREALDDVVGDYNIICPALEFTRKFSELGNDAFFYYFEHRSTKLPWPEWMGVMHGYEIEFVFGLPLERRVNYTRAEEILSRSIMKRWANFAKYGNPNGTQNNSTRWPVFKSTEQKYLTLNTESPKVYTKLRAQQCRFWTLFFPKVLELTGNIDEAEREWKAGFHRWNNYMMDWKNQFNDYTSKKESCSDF

For the compound `O=C(NCCCCCn1ccc2ccc(F)cc21)Oc1ccccc1` [Compound 6, phenyl N‐[5‐(6‐fluoroindol‐1‐yl)pentyl]carbamate], the “MAGL inhibition at 10 μM” value at human recombinant MAGL is given as “no inhibition”. With `O=C(NCCCCCn1ccc2ccc(F)cc21)OC(C(F)(F)F)C(F)(F)F` [Compound 11, 1,1,1,3,3,3‐Hexafluoropropan‐2‐yl N‐[5‐(6‐fluoroindol‐1‐yl)pentyl]carbamate], the IC50 in data set [1] was 740 nM; in data set [4], 3500 nM. Besides, the “PBS‐buffer pH 7.4 Stability” value in data set [2] is on record as 95±4%. In data set [3], the “Porcine liver S9 fraction Stability” value is 72±5%. Also, the “Porcine blood plasma Stability” value in data set [5] worked out at 86±9%.

`O=C(NCCCCCCn1ccc2ccc(F)cc21)OC(C(F)(F)F)C(F)(F)F` [Compound 13, 1,1,1,3,3,3‐Hexafluoropropan‐2‐yl N‐[6‐(6‐fluoroindol‐1‐yl)hexyl]carbamate]: the IC50 in data set [1] was found to be 770 nM; in data set [4], 1800 nM. The “PBS‐buffer pH 7.4 Stability” value in data set [2] is reported as 95±3%. For the same compound, the “Porcine liver S9 fraction Stability” value in data set [3] is 69±5%. Moreover, the “Porcine blood plasma Stability” value in data set [5] is listed as 79±8%. With `O=C(NCCCCCCCn1ccc2ccc(F)cc21)OC(C(F)(F)F)C(F)(F)F` [Compound 15], the IC50 in data set [1] turned out to be 1000 nM. As to `O=C(OC(C(F)(F)F)C(F)(F)F)N1CCC(Cn2ccc3ccc(F)cc32)CC1` [Compound 20, 1,1,1,3,3,3‐Hexafluoropropan‐2‐yl 4‐[(6‐fluoroindol‐1‐yl)methyl]piperidine‐1‐carboxylate], the “FAAH inhibition at 10 μM” value in data set [1] was “no inhibitory activity”. Moreover, the “PBS‐buffer pH 7.4 Stability” value in data set [2] is recorded as above 95%. In addition, the “Porcine liver S9 fraction Stability” value in data set [3] was 75±3%. Also, in data set [5], the “Porcine blood plasma Stability” value is given as 82±6%. `O=C(OC(C(F)(F)F)C(F)(F)F)N1CCC(CCn2ccc3ccc(F)cc32)CC1` [Compound 24, 1,1,1,3,3,3‐Hexafluoropropan‐2‐yl 4‐[2‐(6‐fluoroindol‐1‐yl)ethyl]piperidine‐1‐carboxylate] gave an IC50 in data set [1] of 1000 nM. The “PBS‐buffer pH 7.4 Stability” value in data set [2] is on record as 93±1%. Moreover, the “Porcine liver S9 fraction Stability” value in data set [3] came out at 68±7%. The “Porcine blood plasma Stability” value in data set [5] is 86±7%. In data set [1], `O=C(OC(C(F)(F)F)C(F)(F)F)N1CCC(CCCn2ccc3ccc(F)cc32)CC1` [Compound 28] returned an IC50 of 6300 nM. As for `O=C(OC(C(F)(F)F)C(F)(F)F)N1CCC(CCCCn2ccc3ccc(F)cc32)CC1` [Compound 32], 2800 nM corresponded to half-maximal inhibition in data set [1] (IC50).

Regarding `CN(CCCCCn1ccc2ccc(F)cc21)C(=O)OC(C(F)(F)F)C(F)(F)F` [Compound 35, 1,1,1,3,3,3‐Hexafluoropropan‐2‐yl N‐methyl‐N‐[5‐(6‐fluoroindol‐1‐yl)pentyl]carbamate], the inhibition at 10 µM (in data set [1]; at human recombinant MAGL (read-out: MAGL inhibition at 10 μM)) was around 30% throughout. As for `CCN(CCCCCn1ccc2ccc(F)cc21)C(=O)OC(C(F)(F)F)C(F)(F)F` [Compound 38, 1,1,1,3,3,3‐Hexafluoropropan‐2‐yl N‐ethyl‐N‐[5‐(6‐fluoroindol‐1‐yl)pentyl]carbamate], the “FAAH inhibition at 10 μM” value in data set [1] is “inactive”. Also, at human recombinant MAGL, the “MAGL inhibition at 10 μM” value was “inactive”. Consider `CC(C)N(CCCCCn1ccc2ccc(F)cc21)C(=O)OC(C(F)(F)F)C(F)(F)F` [Compound 40], for which, in data set [1], the “FAAH inhibition at 10 μM” value was “inactive”. The “MAGL inhibition at 10 μM” value at human recombinant MAGL was “inactive”. Consider `O=C(OC(C(F)(F)F)C(F)(F)F)N(CCCCCn1ccc2ccc(F)cc21)C1CC1` [Compound 42], for which, in data set [1], the “FAAH inhibition at 10 μM” value was “inactive”. Also, at human recombinant MAGL, the “MAGL inhibition at 10 μM” value was “inactive”. As for `O=C(OC(C(F)(F)F)C(F)(F)F)N1CCC(Cn2ccc3ccccc32)CC1` [Compound 45], in data set [1], the “FAAH inhibition at 10 μM” value was “no inhibitory activity”. Take `O=C(OC(C(F)(F)F)C(F)(F)F)N1CCC(Cn2ccc3c(F)cccc32)CC1` [Compound 48]: the “FAAH inhibition at 10 μM” value in data set [1] is “no inhibitory activity”. Consider `O=C(OC(C(F)(F)F)C(F)(F)F)N1CCC(Cn2ccc3cccc(F)c32)CC1` [Compound 54], for which, in data set [1], the “FAAH inhibition at 10 μM” value is reported as “no inhibitory activity”. Regarding `Cc1ccc2c(ccn2CC2CCN(C(=O)OC(C(F)(F)F)C(F)(F)F)CC2)c1` [Compound 57], in data set [1], the IC50 is above 10000 nM and the inhibition at 10 µM is around 25%.

For `COc1ccc2c(ccn2CC2CCN(C(=O)OC(C(F)(F)F)C(F)(F)F)CC2)c1` [Compound 60], in data set [1], the IC50 was above 10000 nM and the inhibition at 10 µM is around 25%. As for `N#Cc1ccc2c(ccn2CC2CCN(C(=O)OC(C(F)(F)F)C(F)(F)F)CC2)c1` [Compound 63], in data set [1], the IC50 was above 10000 nM and the inhibition at 10 µM was around 25%.

On to `O=C(OC(C(F)(F)F)C(F)(F)F)N1CCC(CCn2ccc3ccccc32)CC1` [Compound 66], for which inhibition in data set [1] was half-maximal at 2100 nM (IC50).

`O=C(OC(C(F)(F)F)C(F)(F)F)N1CCC(CCn2ccc3c(F)cccc32)CC1` [Compound 69] came in with an IC50 in data set [1] of 2500 nM. The same measure, in the same setting: the result for `O=C(OC(C(F)(F)F)C(F)(F)F)N1CCC(CCn2ccc3cc(F)ccc32)CC1` [Compound 72] reads 2800 nM; that for `O=C(OC(C(F)(F)F)C(F)(F)F)N1CCC(CCn2ccc3cccc(F)c32)CC1` [Compound 75], 1200 nM. In data set [1], `O=C(OC(C(F)(F)F)C(F)(F)F)N1CCC(CCn2ccc3cc(Cl)ccc32)CC1` [Compound 78] gave an IC50 of 7500 nM. For `Cc1ccc2c(ccn2CCC2CCN(C(=O)OC(C(F)(F)F)C(F)(F)F)CC2)c1` [Compound 81], in data set [1], the IC50 was above 10000 nM. Turning to `COc1ccc2c(ccn2CCC2CCN(C(=O)OC(C(F)(F)F)C(F)(F)F)CC2)c1` [Compound 84], in data set [1], the IC50 was 8300 nM. As for `N#Cc1ccc2c(ccn2CCC2CCN(C(=O)OC(C(F)(F)F)C(F)(F)F)CC2)c1` [Compound 87], the IC50 in data set [1] is above 10000 nM. Compound `O=C(OC(C(F)(F)F)C(F)(F)F)N1CCN(CCn2ccc3ccc(F)cc32)CC1` [Compound 92, 1,1,1,3,3,3‐Hexafluoropropan‐2‐yl 4‐[2‐(6‐fluoroindol‐1‐yl)ethyl]piperazine‐1‐carboxylate] gave an IC50 in data set [1] of 2600 nM. In data set [1] (ratio of IC50 values), the “Decrease of activity towards FAAH relative to lead structure 24 (factor)” value is on record as around 2.5. In addition, the “Decrease of activity towards MAGL relative to lead structure 24 (factor)” value on human recombinant MAGL (ratio of IC50 values) is recorded as “about 1.5”. `O=C(OC(C(F)(F)F)C(F)(F)F)N1CCC(CCn2cnc3ccccc32)CC1` [Compound 101, 1,1,1,3,3,3‐Hexafluoropropan‐2‐yl 4‐[2‐(benzimidazol‐1‐yl)ethyl]piperidine‐1‐carboxylate]: the “Aqueous solubility pH 7.4” value in data set [6] is 6.1±0.5 μg/mL. In the data set “Caco‐2 cell permeability”, this compound displayed a Papp A→B at 2 h, 10 µM of 12.6 ± 1 ×10⁻⁶ cm/s. Besides, half-maximal inhibition in data set [1] (IC50) required 1000 nM. Also, the “PBS‐buffer pH 7.4 Stability” value in data set [2] is above 95%. Further, the “Porcine liver S9 fraction Stability” value in data set [3] is recorded as 82±7%. The “Porcine blood plasma Stability” value in data set [5] was 93±5%. Consider `O=C(OC(C(F)(F)F)C(F)(F)F)N1CCC(CCn2nnc3ccccc32)CC1` [Compound 104], for which the IC50 in data set [1] is above 10000 nM.

`O=C(OC(C(F)(F)F)C(F)(F)F)N1CCC(Cn2cnc3ccccc32)CC1` [Compound 122]: in data set [1], the “FAAH inhibition at 10 μM” value is “ineffective”.

In turn, `O=C(OC(C(F)(F)F)C(F)(F)F)N1CCC(Cn2ccc3cccnc32)CC1` [Compound 125, 1,1,1,3,3,3‐Hexafluoropropan‐2‐yl 4‐[(7‐azaindol‐1‐yl)methyl]piperidine‐1‐carboxylate] gave a Papp A→B at 2 h, 10 µM in “Caco‐2 cell permeability” of 10 ×10⁻⁶ cm/s. Moreover, the “FAAH inhibition at 10 μM” value in data set [1] was “ineffective”. For the same compound, the “PBS‐buffer pH 7.4 Stability” value in data set [2] is 92±7%. The “Porcine liver S9 fraction Stability” value in data set [3] worked out at 75±8%. Further, the “Porcine blood plasma Stability” value in data set [5] is listed as 79±6%. Regarding `NC(=O)c1cccc(-c2cccc(OC(=O)NC3CCCCC3)c2)c1` [URB597, reference compound], the “PBS‐buffer pH 7.4 Stability” value in data set [2] is listed as above 95%. Further, in data set [3], the “Porcine liver S9 fraction Stability” value is recorded as 80±4%. Regarding `CCCc1nc(C(C)(C)O)c(C(=O)OCc2oc(=O)oc2C)n1Cc1ccc(-c2ccccc2-c2nnn[nH]2)cc1` [olmesartan medoxomil, reference compound], the “Hydrolysis in porcine blood plasma” value in data set [5] (under the conditions of the stability assay) is on record as “almost quantitatively hydrolyzed”. With `CCOC(=O)C1=C[C@@H](OC(CC)CC)[C@H](NC(C)=O)[C@@H](N)C1` [oseltamivir, reference compound], the “Degradation in porcine liver homogenate” value in data set [3] (percent degraded under the conditions of the stability assay) is “approximately 90%”.
